The text below walks through data of patent US9096593B2, “Compounds and methods for kinase modulation, and indications therefor” (Plexxikon Inc., priority 2009, dated 2015).

The subject of this assay is Osteoclast precursor cells. The assay is described as follows: Osteoclast differentiation assay (acid phosphatase readout). Format: cell-based. Conditions: RANKL and M-CSF. The method, then: Further, an osteoclast differentiation assay is used to assess the efficacy of Fms inhibitors for treating bone disease such as osteoarthritis. On day 0, Osteoclast Medium BulletKit (Lonza catalog #PT-8001, containing Media, FBS, L-Glutamine, PenStrep, RANKL, and M-CSF) media is thawed and the FBS, L-glutamine and PenStrep from the kit is added to 100 mL of Osteoclast Precursor Basal medium to provide the Osteoclast Precursor Growth Medium (OPGM). This is warmed to 37° C. Osteoclast precursor cells (Lonza catalog #2T-110) frozen in cryovial are warmed to 37° C. and transferred to a 50 mL conical tube. The cryovial is rinsed with OPGM and added dropwise to the conical tube of cells with swirling, then the volume is adjusted to 20-30 mL with addition of OPGM. The cells are centrifuged at 200×g for 15 minutes at room temperature and all but approximately 3 mL of supernatant is removed to a new conical tube. The cells are suspended in the remaining supernatant and the volume is adjusted to 10-15 mL with OPGM added dropwise with swirling. […] The cells are resuspended in the remaining supernatant, counted, and the volume adjusted with an appropriate amount of OPGM to provide approximately 1×10^5 cells/mL. […] The absorbance of each well is read at 405 nm on Safire plate reader. The absorbance reading is plotted vs. concentration to provide the IC50 for each compound.

Molecules are shown by their SMILES.

As a reminder, the IC50 is the concentration that inhibits the measured activity by half. Higher therefore signals weaker potency.

In the case of `Clc1cnc2[nH]cc(Cc3ccc(NCc4ccc(Cl)nc4)nc3)c2c1` [Compound P-2003], the IC50 is under 100 nM.
